This test addresses Beta-3 Adrenergic Receptor (Homo sapiens (Human), UniProt P13945). The test is described as follows: HTRF cAMP antagonist assay (IC50 determination). In kind it is cell-based. As to conditions: CHO-K1 cells stably expressing recombinant receptor; antagonism of isoproterenol at EC90; cAMP readout. A digest of the protocol:
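In this functional readout, recombinant CHO-K1 cells received compound, then isoproterenol at its EC90. After 1 h at room temperature, cAMP levels were determined by HTRF using an on-plate standard curve, and IC50 values were fitted.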
(TR-FRET usually uses a lanthanide donor and a delayed reading to cut background.)

Beta-3 Adrenergic Receptor, sequence (P13945 whole entry, species assumed): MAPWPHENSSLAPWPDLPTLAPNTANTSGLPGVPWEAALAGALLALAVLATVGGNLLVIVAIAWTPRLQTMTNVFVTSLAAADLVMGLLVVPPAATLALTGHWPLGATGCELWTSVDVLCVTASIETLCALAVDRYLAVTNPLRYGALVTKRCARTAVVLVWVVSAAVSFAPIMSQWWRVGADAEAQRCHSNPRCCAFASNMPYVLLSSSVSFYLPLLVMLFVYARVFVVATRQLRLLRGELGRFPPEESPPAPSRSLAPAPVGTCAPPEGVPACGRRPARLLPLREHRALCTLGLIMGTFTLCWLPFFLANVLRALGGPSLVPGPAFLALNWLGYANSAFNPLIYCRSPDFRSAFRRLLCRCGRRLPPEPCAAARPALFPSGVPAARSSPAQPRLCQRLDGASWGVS

Broadly, the IC50 is the concentration that inhibits the measured activity by half. As for `CS(=O)(=O)c1cccc(OC[C@@H](O)CNC2COC3(CCN(S(=O)(=O)c4ccc5[nH]ncc5c4)CC3)C2)c1` (stereo partly drawn) [Compound 77, (2,5)-1-(8-(1H-indazol-5-ylsulfonyl)-1-oxa-8-azaspiro[4.5]decan-3-ylamino)-3-(3-(methylsulfonyl)phenoxy)propan-2-ol], the IC50 was 35.1 nM.
For `CN1CCOc2ncc(S(=O)(=O)N3CCC4(CC3)C[C@@H](NC[C@H](O)COc3cccc(CS(C)(=O)=O)c3)CO4)cc21` [Compound 104, (S)-1-((R)-8-(1-methyl-2,3-dihydro-1H-pyrido[2,3-b][1,4]oxazin-7-ylsulfonyl)-1-oxa-8-azaspiro[4.5]decan-3-ylamino)-3-(3-(methylsulfonylmethyl)phenoxy)propan-2-ol] the value was 36.5 nM; for `O=S(=O)(c1cnc2ccccc2c1)N1CCC2(CC1)C[C@@H](NC[C@H](O)COc1cccc(S(=O)(=O)C3(CO)CCC3)c1)CO2` [Compound 107, (S)-1-(3-(1-(hydroxymethyl)cyclobutylsulfonyl)phenoxy)-3-((R)-8-(quinolin-3-ylsulfonyl)-1-oxa-8-azaspiro[4.5]decan-3-ylamino)propan-2-ol], 25.7 nM.
As for `Cc1cccc(-c2cccc(S(=O)(=O)N3CCC4(CC3)C[C@H](NC[C@H](O)COc3cccc(S(=O)(=O)CCO)c3)CO4)c2)n1` [Compound 120, (5)-1-(3-(2-hydroxyethylsulfonyl)phenoxy)-3-((S)-8-(3-(6-methylpyridin-2-yl)phenylsulfonyl)-1-oxa-8-azaspiro[4.5]decan-3-ylamino)propan-2-ol], the IC50 worked out at 177 nM.
Turning to `O=S(=O)(CCO)c1cccc(OC[C@@H](O)CN[C@H]2COC3(CCN(S(=O)(=O)c4cccc5cnccc45)CC3)C2)c1` [Compound 105, (S)-1-(3-(2-hydroxyethylsulfonyl)phenoxy)-3-((R)-8-(isoquinolin-5-ylsulfonyl)-1-oxa-8-azaspiro[4.5]decan-3-ylamino)propan-2-ol], the IC50 was 277 nM.
To `CCn1cc(S(=O)(=O)N2CCC3(CC2)C[C@@H](NC[C@H](O)COc2cccc(S(=O)(=O)C(C)(C)CO)c2)CO3)c(=O)c2ccccc21` [Compound 294, 1-ethyl-3-((R)-3-((S)-2-hydroxy-3-(3-(1-hydroxy-2-methylpropan-2-ylsulfonyl)phenoxy)propylamino)-1-oxa-8-azaspiro[4.5]decan-8-ylsulfonyl)quinolin-4(1H)-one] belongs 110 nM.
For `CC(C)(CO)S(=O)(=O)c1cccc(OC[C@@H](O)CN[C@H]2COC3(CCN(S(=O)(=O)c4cnc5ccccc5c4)CC3)C2)c1` [Compound 106, 2-(3-((S)-2-hydroxy-3-((R)-8-(quinolin-3-ylsulfonyl)-1-oxa-8-azaspiro[4.5]decan-3-ylamino)propoxy)phenylsulfonyl)-2-methylpropan-1-ol] the value was 36.2 nM; for `Cc1cc(S(=O)(=O)N2CCC3(CC2)C[C@@H](NC[C@H](O)COc2cccc(S(=O)(=O)C4(CO)CC4)c2)CO3)ccc1Br` [Compound 194, (S)-1-((R)-8-(4-bromo-3-methylphenylsulfonyl)-1-oxa-8-azaspiro[4.5]decan-3-ylamino)-3-(3-(1-(hydroxymethyl)cyclopropylsulfonyl)phenoxy)propan-2-ol], 13.6 nM; for `O=c1[nH]c2cc(S(=O)(=O)N3CCC4(CC3)C[C@@H](NC[C@H](O)COc3cccc(S(=O)(=O)C5CC5)c3)CO4)cnc2[nH]1` [Compound 281, 6-((R)-3-((S)-3-(3-(cyclopropylsulfonyl)phenoxy)-2-hydroxypropylamino)-1-oxa-8-azaspiro[4.5]decan-8-ylsulfonyl)-1H-imidazo[4,5-b]pyridin-2(3H)-one], 57.9 nM.
In the case of `CS(=O)(=O)c1cccc(OC[C@@H](O)CNC2COC3(CCN(S(=O)(=O)c4cccc(-c5cccnc5)c4)CC3)C2)c1` (stereo partly drawn) [Compound 63, (2S)-1-(3-(methylsulfonyl)phenoxy)-3-(8-(3-(pyridin-3-yl)phenylsulfonyl)-1-oxa-8-azaspiro[4.5]decan-3-ylamino)propan-2-ol], the IC50 is 17.2 nM.
To `COc1c(-c2ccc(CN)cc2)cccc1S(=O)(=O)N1CCC2(CC1)C[C@H](NC[C@H](O)COc1cccc(S(=O)(=O)C3CC3)c1)CO2` [Compound 228, (S)-1-((S)-8-(4′-(aminomethyl)-2-methoxybiphenyl-3-ylsulfonyl)-1-oxa-8-azaspiro[4.5]decan-3-ylamino)-3-(3-(cyclopropylsulfonyl)phenoxy)propan-2-ol] belongs 29.1 nM; to `O=S(=O)(CCO)c1cccc(OC[C@@H](O)CN[C@H]2COC3(CCN(S(=O)(=O)c4ccc(-c5ccccn5)cc4)CC3)C2)c1` [Compound 102, (S)-1-(3-(2-hydroxyethylsulfonyl)phenoxy)-3-((R)-8-(4-(pyridin-2-yl)phenylsulfonyl)-1-oxa-8-azaspiro[4.5]decan-3-ylamino)propan-2-ol], 114 nM.
To `NC(=O)CS(=O)(=O)c1cccc(OC[C@@H](O)CN[C@H]2COC3(CCN(S(=O)(=O)c4ccc5ncccc5c4)CC3)C2)c1` [Compound 137, 2-(3-((S)-2-hydroxy-3-((R)-8-(quinolin-6-ylsulfonyl)-1-oxa-8-azaspiro[4.5]decan-3-ylamino)propoxy)phenylsulfonyl)acetamide] belongs 350 nM.
To `CCOc1ccc(-c2ccc(C3(N)CC3)cc2)cc1S(=O)(=O)N1CCC2(CC1)C[C@H](NC[C@H](O)COc1cccc(S(=O)(=O)C3(CO)CC3)c1)CO2` [Compound 188, (S)-1-((S)-8-(4′-(1-aminocyclopropyl)-4-ethoxybiphenyl-3-ylsulfonyl)-1-oxa-8-azaspiro[4.5]decan-3-ylamino)-3-(3-(1-(hydroxymethyl)cyclopropylsulfonyl)phenoxy)propan-2-ol] belongs 35 nM; to `O=S(=O)(CCO)c1cccc(OC[C@@H](O)CN[C@H]2COC3(CCN(S(=O)(=O)c4cccc(-c5cccc(F)n5)c4)CC3)C2)c1` [Compound 134, (S)-1-((R)-8-(3-(6-fluoropyridin-2-yl)phenylsulfonyl)-1-oxa-8-azaspiro[4.5]decan-3-ylamino)-3-(3-(2-hydroxyethylsulfonyl)phenoxy)propan-2-ol], 55.1 nM; to `O=S(=O)(CCCC(F)(F)F)c1cccc(OC[C@@H](O)CNC2COC3(CCN(S(=O)(=O)c4ccc5ccccc5c4)CC3)C2)c1` (stereo partly drawn) [Compound 14, (2S)-1-(8-(naphthalen-2-ylsulfonyl)-1-oxa-8-azaspiro[4.5]decan-3-ylamino)-3-(3-(4,4,4-trifluorobutylsulfonyl)phenoxy)propan-2-ol], 56.7 nM.
In the case of `CC(C)NCc1ccc(-c2cccc(S(=O)(=O)N3CCC4(CC3)CC(NC[C@H](O)COc3cccc(S(C)(=O)=O)c3)CO4)c2)cc1` (stereo partly drawn) [Compound 80, (2S)-1-(8-(4′-((isopropylamino)methyl)biphenyl-3-ylsulfonyl)-1-oxa-8-azaspiro[4.5]decan-3-ylamino)-3-(3-(methylsulfonyl)phenoxy)propan-2-ol], the IC50 was 38.1 nM.
To `CC(C)(C)NCc1ccc(-c2cccc(S(=O)(=O)N3CCC4(CC3)C[C@@H](NC[C@H](O)COc3cccc(S(=O)(=O)C5(CO)CC5)c3)CO4)c2)cc1` [Compound 262, (S)-1-((R)-8-(4′-((tert-butylamino)methyl)biphenyl-3-ylsulfonyl)-1-oxa-8-azaspiro[4.5]decan-3-ylamino)-3-(3-(1-(hydroxymethyl)cyclopropylsulfonyl)phenoxy)propan-2-ol] belongs 982 nM; to `CCOc1ccc(-c2ccc(CCNC(C)=O)cc2)cc1S(=O)(=O)N1CCC2(CC1)C[C@H](NC[C@H](O)COc1cccc(S(=O)(=O)C3(CO)CC3)c1)CO2` [Compound 177, N-(2-(4′-ethoxy-3′-((S)-3-((S)-2-hydroxy-3-(3-(1-(hydroxymethyl)cyclopropylsulfonyl)phenoxy)propylamino)-1-oxa-8-azaspiro[4.5]decan-8-ylsulfonyl)biphenyl-4-yl)ethyl)acetamide], 50.6 nM.
To `O=S(=O)(CCO)c1cccc(OC[C@@H](O)CN[C@H]2COC3(CCN(S(=O)(=O)c4ccc5cccnc5c4)CC3)C2)c1` [Compound 98, (S)-1-(3-(2-hydroxyethylsulfonyl)phenoxy)-3-((R)-8-(quinolin-7-ylsulfonyl)-1-oxa-8-azaspiro[4.5]decan-3-ylamino)propan-2-ol] belongs 89 nM; to `N#CCS(=O)(=O)c1cccc(OC[C@@H](O)CNC2COC3(CCN(S(=O)(=O)c4ccc5ccccc5c4)CC3)C2)c1` (stereo partly drawn) [Compound 12, 2-(3-((2S)-2-hydroxy-3-(8-(naphthalen-2-ylsulfonyl)-1-oxa-8-azaspiro[4.5]decan-3-ylamino)propoxy)phenylsulfonyl)acetonitrile], 130 nM; to `Cn1cc(S(=O)(=O)N2CCC3(CC2)C[C@@H](NC[C@H](O)COc2cccc(S(=O)(=O)C4(CO)CC4)c2)CO3)c(=O)c2ccccc21` [Compound 295, 3-((R)-3-((S)-2-hydroxy-3-(3-(1-(hydroxymethyl)cyclopropylsulfonyl)phenoxy)propylamino)-1-oxa-8-azaspiro[4.5]decan-8-ylsulfonyl)-1-methylquinolin-4(1H)-one], 143 nM.
For `O=S(=O)(c1ccc2ncccc2c1)N1CCC2(CC1)C[C@@H](NC[C@H](O)COc1cccc(S(=O)(=O)C3(CO)CC3)c1)CO2` [Compound 147, (S)-1-(3-(1-(hydroxymethyl)cyclopropylsulfonyl)phenoxy)-3-((R)-8-(quinolin-6-ylsulfonyl)-1-oxa-8-azaspiro[4.5]decan-3-ylamino)propan-2-ol] the value was 53.3 nM; for `Cn1cnc2ccc(S(=O)(=O)N3CCC4(CC3)C[C@@H](NC[C@H](O)COc3cccc(S(=O)(=O)C5(CO)CC5)c3)CO4)nc21` [Compound 287, (S)-1-(3-(1-(hydroxymethyl)cyclopropylsulfonyl)phenoxy)-3-((R)-8-(3-methyl-3H-imidazo[4,5-b]pyridin-5-ylsulfonyl)-1-oxa-8-azaspiro[4.5]decan-3-ylamino)propan-2-ol], 151 nM.

The values are drawn from US10927123B2, “Modulators of the beta-3 adrenergic receptor useful for the treatment or prevention of disorders related thereto” (Arena Pharmaceuticals, Inc., priority 2016, dated 2021).
